Bounds are passed on as bounds.

The values that follow come from patent publication US20220009891A1, “(R) ENANATIOMER OF APLEXONE” (The Regents of the University of California, priority 2018, published 2022).

For data set [1], the system named is Transgenic Tg(kdrl:GFP)la116 zebrafish embryos. The data set can be described thus: Disruption of the caudal vein plexus in zebrafish embryos. The class given is in vivo. As to conditions: two-day-old zebrafish embryos, treated beginning at 10 hpf. Here is the method: (§1) Transgenic Tg(kdrl:GFP)la116 zebrafish embryos were treated with aplexone compounds beginning at 10 hours post fertilization (hpf). After two days of development, treated embryos were anesthetized with 0.01% tricaine and imaged using a Zeiss Axioplan 2 microscope. […] Formation of the caudal vein plexus is disrupted by treatment with 10 μM or higher of racemic (±)-aplexone (3) and 5 μM or higher of R-aplexone (3), but the caudal vein plexus forms normally even after treatment with 20 μM (S)-aplexone (3).

The test system of data set [2] is Zebrafish embryos. The data set can be described thus: Cholesterol assay in zebrafish embryos (Amplex Red Cholesterol Assay Kit). The class given is in vivo. As to conditions: 40 μM, treated from 10 hpf to 30 hpf; FIG. 1. Here is the method: (§2) Zebrafish embryos used in cholesterol assays were treated with aplexone or atorvastatin (AT) from 10 hpf to 30 hpf at a concentration of 40 μM. Yolks were removed by vortexing in calcium-free Ringer's solution with 1 mM EDTA at 4° C. The embryos were then washed with calcium-free Ringer's solution, resuspended in cholesterol assay reaction buffer, and lysed by sonication. Cholesterol levels in embryo lysates were measured with an Amplex Red Cholesterol Assay Kit (ThermoFisher Scientific) and FLUOstar Omega microplate reader (BMG Labtech). Protein concentrations of the embryo lysates were measured by DC protein assay (Bio-Rad Laboratories) using a FLUOstar Omega microplate reader.

Data set [3] concerns zebrafish. As to conditions: Choi et al., Development 2011; cited from earlier work.
Data set [4] has as its system HMG-CoA reductase pathway. As to conditions: zebrafish; Choi et al., Development 2011; cited from earlier work.
The subject of data set [5] is Zebrafish embryos. Nature of the data set: Biological assays used herein (summary statement). The class given is in vivo. The procedure:
as §1, §2

Turning to `CC(=O)C1=CCC(c2ccccc2)N(S(=O)(=O)c2ccc(C)cc2)C1` (racemic) [(±)-aplexone, 1-(6-phenyl-1-tosyl-1,2,5,6-tetrahydropyridin-3-yl)ethan-1-one], the “concentration at which formation of the caudal vein plexus is disrupted” value (shortened to “concentration at which formation”) in data set [1] is not below 10 µM. Moreover, the “cholesterol levels in embryo lysates compared with atorvastatin (AT)” value in data set [2] was “lowered the cholesterol levels to an extent similar to that of AT”. Besides, in data set [3], the “levels of embryonic cholesterol compared with atorvastatin” value was “lowered the levels of embryonic cholesterol to a degree similar to that of atorvastatin”. In addition, in data set [4], the “regulation of arteriovenous angiogenesis” value is recorded as “regulate arteriovenous angiogenesis in zebrafish”.

The melting point is the temperature of the solid-liquid transition. `CCOC(=O)C1=CC[C@H](c2ccccc2)N(S(=O)(=O)c2ccc(C)cc2)C1` [7c, Ethyl (R)-6-phenyl-1-tosyl-1,2,5,6-tetrahydropyridine-3-carboxylate] gave a melting point of 145 to 146 °C.

With `CC(=O)C1=CC[C@H](c2ccccc2)N(S(=O)(=O)c2ccc(C)cc2)C1` [R-aplexone], the “concentration at which formation” value in data set [1] is not below 5 µM. Further, the “cholesterol levels in embryo lysates compared with atorvastatin (AT)” value in data set [2] is “decreased the cholesterol levels to a greater extent than AT”. Also, in data set [5], the “biological activity of the enantiomer” value is given as “active enantiomer”.

In the case of `CC(=O)C1=CC[C@@H](c2ccccc2)N(S(=O)(=O)c2ccc(C)cc2)C1` [S-aplexone], the “concentration at which formation” value in data set [1] is more than 20 µM. The “cholesterol levels in embryo lysates compared with atorvastatin (AT)” value in data set [2] was “no cholesterol lowering activity”. Besides, in data set [5], the “biological activity of the enantiomer” value is reported as “little to no biological activity”.
